# Data as given in EP4667466A1, “PROTAC DEGRADERS OF MLLT1 AND/OR MLLT3” (priority 2024, dated 2025).
# Target: T1, MLLT1 (Homo sapiens, UniProt Q03111)
# T1 construct: endogenous in cells; host or cells: MV4-11 (ATCC CRL-9591)
# T1 sequence (Q03111 1-559): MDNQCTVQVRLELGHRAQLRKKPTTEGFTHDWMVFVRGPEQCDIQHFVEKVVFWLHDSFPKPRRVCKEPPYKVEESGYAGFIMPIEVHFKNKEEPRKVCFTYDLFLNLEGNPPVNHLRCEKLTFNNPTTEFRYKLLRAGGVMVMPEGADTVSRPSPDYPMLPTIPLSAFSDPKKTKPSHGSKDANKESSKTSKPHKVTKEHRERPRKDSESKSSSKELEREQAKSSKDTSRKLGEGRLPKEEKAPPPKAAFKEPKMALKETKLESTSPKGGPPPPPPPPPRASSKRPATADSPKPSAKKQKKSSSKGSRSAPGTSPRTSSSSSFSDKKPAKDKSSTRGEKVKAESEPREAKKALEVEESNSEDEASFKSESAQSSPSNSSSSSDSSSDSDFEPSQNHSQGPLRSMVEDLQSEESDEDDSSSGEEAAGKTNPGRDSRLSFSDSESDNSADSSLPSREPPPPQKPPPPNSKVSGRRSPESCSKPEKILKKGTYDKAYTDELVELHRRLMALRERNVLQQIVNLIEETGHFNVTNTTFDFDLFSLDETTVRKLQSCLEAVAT
# Experiment: MLLT1 degradation assay (JESS automated chemiluminescent detection) in MV4-11 cells
# Assay type: cell-based
# Details: 24h, with respect to DMSO control
# Protocol: MLLT1 degradation efficacy of compounds was tested in an automated chemiluminescent detection system (JESS, Cat# 004-650). MV4-11 (#CRL-9591, ATCC) cells were seeded at a density of 1.2 million cells/well in a non-treated 6-well cell culture plate in 2.4 mL of complete medium (IMDM + 10% FBS + 1X Penicillin-Streptomycin). 10 mM DMSO stocks were prepared, and cells were treated with three concentrations of test compounds viz. 1000, 100 and 10 nM at a final DMSO concentration of 0.1% and incubated for 24h at 37°C, 5% CO2. Post incubation, cells were centrifuged, washed with HBSS and lysed in 70 uL of RIPA buffer supplemented with Protease inhibitors (sc-24948; Santa Cruz). Subsequently, protein estimation was done using BCA protein assay kit (23225; Pierce). 4 ug protein lysate (4 uL of 1ug/uL lysate) was loaded into each well of the JESS cartridge (SM-WO01; Bio-techne) and the JESS run was performed using 1:900 dilution of anti-human MLLT1 antibody (14893; Cell signaling technology) and 1:1200 dilution of anti-human GAPDH antibody (2118; Cell signaling technology) with anti-rabbit secondary detection module (DM-001; Bio-Techne). Post run, data were analysed using "Compass for SW" software for chemiluminescent detection. The peak area for each band was used for the calculation of MLLT1 degradation with respect to DMSO control. Data is shown as "MLLT1 % degradation". Category A: A ≥ 75% degradation Category B: 50% ≤ B < 75% degradation Category C: 25% ≤ C < 50% degradation Category D: D < 25% degradation Table 1
compound,measurement,value
"CN1CCC[C@@H]1c1cc2cnc(NC(=O)c3ccc4c(C5CC5)nn(CCCCCCCC#Cc5cccc6c5CN(C5CCC(=O)NC5=O)C6=O)c4c3)cc2[nH]1 (stereo partly drawn) [Example 59, 3-cyclopropyl-1-(9-(2-(2,6-dioxopiperidin-3-yl)-1-oxoisoindolin-4-yl)non-8-yn-1-yl)-N-(2-((R)-1-methylpyrrolidin-2-yl)-1H-pyrrolo [3,2-c]pyridin-6-yl)-1H-indazole-6-carboxamide]",inhibition at 0.01 µM,≥ 75%
same,inhibition at 0.1 µM,≥ 75%
same,inhibition at 1 µM,≥ 75%
"Cc1c(C#CCCCCCn2nc(C)c3ccc(C(=O)Nc4cc5[nH]c([C@H]6CCCN6C)cc5cn4)cc32)cccc1C(=O)NC1CCC(=O)NC1=O (stereo partly drawn) [Example 35, 1-(7-(3-((2,6-dioxopiperidin-3-yl)carbamoyl)-2-methylphenyl)hept-6-yn-1-yl)-3-methyl-N-(2-((R)-1-methylpyrrolidin-2-yl)-1H-pyrrolo[3,2-c]pyridin-6-yl)-1H-indazole-6-carboxamide]",inhibition at 0.01 µM,25 to 50%
same,inhibition at 0.1 µM,< 25%
same,inhibition at 1 µM,50 to 75%
"Cc1nn(CCCC2CCN(c3ccc(C(=O)NC4CCC(=O)NC4=O)cc3F)CC2)c2cc(C(=O)Nc3cc4[nH]c([C@H]5CCCN5C)cc4cn3)ccc12 (stereo partly drawn) [Example 28, 1-(3-(1-(4-((2,6-dioxopiperidin-3-yl)carbamoyl)-2-fluorophenyl)piperidin-4-yl)propyl)-3-methyl-N-(2-((R)-1-methylpyrrolidin-2-yl)-1H-pyrrolo[3,2-c]pyridin-6-yl)-1H-indazole-6-carboxamide]",inhibition at 0.1 µM,25 to 50%
same,inhibition at 1 µM,25 to 50%
"Cc1c(OCCCCCCn2nc(C)c3ccc(C(=O)Nc4cc5[nH]c([C@H]6CCCN6C)cc5cn4)cc32)cccc1N1CCC(=O)NC1=O [Example 10, 1-16-[3-(2,4-dioxo-1,3-diazinan-1-yl)-2-methylphenoxy]hexyll-3-methyl-N-{2-[(2R)-1-methylpyrrolidin-2-yl]-1H-pyrrolo [3,2-c]pyridin-6-yl}indazole-6-carboxamide]",inhibition at 0.01 µM,25 to 50%
same,inhibition at 0.1 µM,25 to 50%
same,inhibition at 1 µM,25 to 50%
"Cc1nn(CCCCN2CCN(c3ccc4c(c3)C(=O)N(C3CCC(=O)NC3=O)C4=O)CC2)c2cc(C(=O)Nc3cc4[nH]c([C@@H]5CCCN5C)cc4cn3)ccc12 (stereo partly drawn) [Example 20, 1-(4-{4-[2-(2,6-dioxopiperidin-3-yl)-1,3-dioxoisoindol-5-yl]piperazin-1-yl}butyl)-3-methyl-N-{2-[(2S)-1-methylpyrrolidin-2-yl]-1H-pyrrolo[3,2-c]pyridin-6-yl}indazole-6-carboxamide]",inhibition at 0.01 µM,25 to 50%
same,inhibition at 0.1 µM,25 to 50%
same,inhibition at 1 µM,≥ 75%
"CN1CCC[C@@H]1c1cc2cnc(NC(=O)c3ccc4c(c3)c(N3CCC(CN5CCN(c6cc7c(cc6F)C(=O)N(C6CCC(=O)NC6=O)C7=O)CC5)CC3)nn4C)cc2[nH]1 (stereo partly drawn) [Example 6, 3-[4-({4-[2-(2,6-dioxopiperidin-3-yl)-6-fluoro-1,3-dioxoisoindol-5-yl]piperazin-1-yl}methyl)piperidin-1-yl]-1-methyl-N-{2-[(2R)-1-methylpyrrolidin-2-yl]-1H-pyrrolo[3,2-c]pyridin-6-yl}indazole-5-carboxamide]",inhibition at 0.01 µM,25 to 50%
same,inhibition at 0.1 µM,50 to 75%
same,inhibition at 1 µM,≥ 75%
"Cc1nn(CCCCCCCCNc2cccc3c2C(=O)N(C2CCC(=O)NC2=O)C3=O)c2cc(C(=O)Nc3cc4[nH]c([C@@H]5CCCN5C)cc4cn3)ccc12 (stereo partly drawn) [Example 4, 1-(8-{[2-(2,6-dioxopiperidin-3-yl)-1,3-dioxoisoindol-4-yl]amino}octyl)-3-methyl-N-{2-[(2S)-1-methylpyrrolidin-2-yl]-1H-pyrrolo [3,2-c]pyridin-6-yl}indazole-6-carboxamide]",inhibition at 0.01 µM,< 25%
same,inhibition at 0.1 µM,< 25%
same,inhibition at 1 µM,50 to 75%
